Results reported in ChEMBL document CHEMBL1144473, “Selective inhibition of carboxylesterases by isatins, indole-2,3-diones” (J Med Chem, 2007).
Active and inactive are the calls of the source. The calls are words filed in the database; no cut-off is given here.

Legend:
[1] = Inhibition of human intestinal carboxylesterase expressed in sf21 cells up to 100 uM
[2] = molecular target: T1, Liver carboxylesterase 1 (Homo sapiens, UniProt P23141); assay: Inhibition of human liver CE1 expressed in sf21 cells up to 100 uM
T1 sequence (P23141 whole entry): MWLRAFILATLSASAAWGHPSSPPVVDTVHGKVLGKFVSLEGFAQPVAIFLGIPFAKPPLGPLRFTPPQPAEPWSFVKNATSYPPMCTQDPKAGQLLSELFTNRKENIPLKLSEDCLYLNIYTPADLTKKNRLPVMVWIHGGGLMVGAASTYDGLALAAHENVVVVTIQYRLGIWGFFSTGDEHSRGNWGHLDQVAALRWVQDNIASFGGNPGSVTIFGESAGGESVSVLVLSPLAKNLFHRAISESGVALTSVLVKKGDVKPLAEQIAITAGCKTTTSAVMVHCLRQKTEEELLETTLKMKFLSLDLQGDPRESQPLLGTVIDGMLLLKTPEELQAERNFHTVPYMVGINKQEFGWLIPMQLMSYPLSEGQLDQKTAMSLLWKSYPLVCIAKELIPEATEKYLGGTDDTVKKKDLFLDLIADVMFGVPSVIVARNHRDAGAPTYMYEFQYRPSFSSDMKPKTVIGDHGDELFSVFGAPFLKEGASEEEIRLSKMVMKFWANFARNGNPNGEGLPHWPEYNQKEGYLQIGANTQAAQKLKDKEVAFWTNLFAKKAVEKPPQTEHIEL

[3] = Inhibition of rabbit liver carboxylesterase expressed in sf21 cells up to 100 uM; conditions: Oryctolagus cuniculus
[4] = Inhibition of human intestinal carboxylesterase expressed in sf21 cells
[5] = molecular target: T1, Liver carboxylesterase 1; assay: Inhibition of human liver CE1 expressed in sf21 cells; type: cell-based
[6] = Inhibition of rabbit liver carboxylesterase expressed in sf21 cells; type: cell-based, Oryctolagus cuniculus
[7] = molecular target: Acetylcholinesterase (Homo sapiens, UniProt P22303)
Sequence of Acetylcholinesterase (P22303 whole entry): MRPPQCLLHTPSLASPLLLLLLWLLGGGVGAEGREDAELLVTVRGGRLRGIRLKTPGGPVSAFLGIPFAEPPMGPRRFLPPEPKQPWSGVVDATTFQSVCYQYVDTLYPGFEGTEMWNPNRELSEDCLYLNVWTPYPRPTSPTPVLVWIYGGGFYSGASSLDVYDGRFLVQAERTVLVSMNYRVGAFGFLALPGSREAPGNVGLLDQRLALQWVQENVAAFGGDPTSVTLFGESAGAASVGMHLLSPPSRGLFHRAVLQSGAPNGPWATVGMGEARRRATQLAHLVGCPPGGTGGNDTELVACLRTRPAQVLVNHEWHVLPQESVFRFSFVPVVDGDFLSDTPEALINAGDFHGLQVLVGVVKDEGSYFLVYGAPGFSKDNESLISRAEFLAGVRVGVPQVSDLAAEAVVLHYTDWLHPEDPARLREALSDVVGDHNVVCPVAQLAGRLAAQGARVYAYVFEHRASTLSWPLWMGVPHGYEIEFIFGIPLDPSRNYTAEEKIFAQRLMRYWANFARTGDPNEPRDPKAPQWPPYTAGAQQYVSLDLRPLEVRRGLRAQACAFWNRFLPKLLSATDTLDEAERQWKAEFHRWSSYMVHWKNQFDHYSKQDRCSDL

[8] = molecular target: Cholinesterase (Homo sapiens, UniProt P06276)
Sequence of Cholinesterase (P06276 whole entry): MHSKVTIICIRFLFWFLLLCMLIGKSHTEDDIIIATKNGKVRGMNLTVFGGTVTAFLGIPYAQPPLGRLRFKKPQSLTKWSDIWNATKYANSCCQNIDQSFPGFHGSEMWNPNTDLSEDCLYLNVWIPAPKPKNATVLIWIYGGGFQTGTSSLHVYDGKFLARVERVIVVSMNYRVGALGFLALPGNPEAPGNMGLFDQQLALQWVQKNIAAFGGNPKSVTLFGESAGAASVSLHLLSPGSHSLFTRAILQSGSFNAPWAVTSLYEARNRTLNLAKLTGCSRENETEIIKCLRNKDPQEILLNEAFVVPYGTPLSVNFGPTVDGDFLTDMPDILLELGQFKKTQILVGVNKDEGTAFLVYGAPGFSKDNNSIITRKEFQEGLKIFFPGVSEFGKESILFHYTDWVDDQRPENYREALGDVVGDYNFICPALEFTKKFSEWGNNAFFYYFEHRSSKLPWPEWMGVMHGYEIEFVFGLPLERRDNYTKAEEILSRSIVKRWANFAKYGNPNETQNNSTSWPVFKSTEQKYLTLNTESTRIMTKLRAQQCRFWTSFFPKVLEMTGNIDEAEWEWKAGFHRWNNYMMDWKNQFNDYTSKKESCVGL

Compound	Activity [2]	Activity [1]	Activity [3]	Ki [4] [µM]	Ki [5] [µM]	Ki [6] [µM]	Ki [7] [µM]	Ki [8] [µM]
c1ccc2c(c1)CCN2 [INDOLINE]	Not Active	inactive	inactive	–	–	–	–	–
c1ccc2[nH]ccc2c1 [INDOLE]	Not Active	inactive	inactive	–	–	–	–	–
C1=Cc2ccccc2C1 [INDENE]	Not Active	inactive	inactive	–	–	–	–	–
c1ccc2c(c1)CCC2	Not Active	inactive	inactive	–	–	–	–	–
O=C1c2ccccc2C(=O)N1c1ccccc1 [N-PHENYL-PHTHALIMIDE]	Not Active	inactive	inactive	–	–	–	–	–
Cc1ccc(C)c2c1NC(=O)C2=O	–	–	–	30.8	> 100	> 100	> 100	> 100

Continued, in another order:

Activity [2]	Compound	Activity [1]	Activity [3]	Ki [4] [µM]	Ki [5] [µM]	Ki [6] [µM]	Ki [7] [µM]	Ki [8] [µM]
Not Active	N/N=C1\C(=O)Nc2ccccc21	inactive	inactive	–	–	–	–	–
Not Active	O=C1CC(=O)c2ccccc21	inactive	inactive	–	–	–	–	–
Not Active	O=C1Nc2ccccc2/C1=N/O	inactive	inactive	–	–	–	–	–
Not Active	O=C1NC(=O)c2ccccc21 [PHTHALIMIDE]	inactive	inactive	–	–	–	–	–
